Data from US9949475B2, “Composition comprising active ingredient, oil and ionic liquid” (priority 2011, dated 2018).
Values after ≈ are worked out from the molar mass of the structure shown. Like-named read-outs stand apart in the source and are kept apart here.

Assay: Solubility of agrochemical active ingredient in oil comprising ionic liquid
Type: physicochemical
Settings: thermodynamic from solid, 21° C.
Source text: Alternatively, the oil, which comprised the ionic liquid, was saturated with the active ingredient and the soluble fraction of active ingredient was quantified by means of HPLC. In the first line of the tables, in each case the weight ratios of oil to IL are given.

Work on `Cn1cc(C(=O)Nc2ccccc2-c2cc(F)c(F)c(F)c2)c(C(F)F)n1` [fluxapyroxad, 3-(difluoromethyl)-1-methyl-N-(3′,4′,5′-trifluorobiphenyl-2-yl)pyrazole-4-carboxamide] yielded a solubility (Cetiol B oil comprising ionic liquid, 21 °C, oil or lipid, Oil/IL 60/40 weight ratio, IL N-butyl-N′-methylimidazolium dimethylphosphate, read-out: Solubility of fluxapyroxad with Cetiol ® B as oil) of 43.1 mg/mL, a solubility (Cetiol B oil comprising ionic liquid, 21 °C, oil or lipid, Oil/IL 60/40 weight ratio, IL N-ethyl-N′-ethylimidazolium propionate, read-out: Solubility of fluxapyroxad with Cetiol ® B as oil) of 50.8 mg/mL and a solubility (Cetiol B oil comprising ionic liquid, 21 °C, oil or lipid, Oil/IL 60/40 weight ratio, IL N-ethyl-N′-methylimidazolium acetate, read-out: Solubility of fluxapyroxad with Cetiol ® B as oil) of 54.9 mg/mL. The solubility (Cetiol B oil comprising ionic liquid, 21 °C, oil or lipid, Oil/IL 60/40 weight ratio, IL N-ethyl-N′-methylimidazolium dibutylphosphate, read-out: Solubility of fluxapyroxad with Cetiol ® B as oil) was 46 mg/mL, the solubility (Cetiol B oil comprising ionic liquid, 21 °C, oil or lipid, Oil/IL 60/40 weight ratio, IL N-ethyl-N′-methylimidazolium heptanoate, read-out: Solubility of fluxapyroxad with Cetiol ® B as oil) was 50 mg/mL and the solubility (Cetiol B oil comprising ionic liquid, 21 °C, oil or lipid, Oil/IL 60/40 weight ratio, IL N-ethyl-N′-methylimidazolium octanoate, read-out: Solubility of fluxapyroxad with Cetiol ® B as oil) was 49.5 mg/mL. For the same molecule, the solubility (Cetiol B oil comprising ionic liquid, 21 °C, oil or lipid, Oil/IL 60/40 weight ratio, IL N-propyl-N′-propylimidazolium acetate, read-out: Solubility of fluxapyroxad with Cetiol ® B as oil) was 49.6 mg/mL, the solubility (Cetiol B oil comprising ionic liquid, 21 °C, oil or lipid, Oil/IL 60/40 weight ratio, IL Tetrabutylammonium [2-(2-methoxyethoxy)ethoxy]acetate, read-out: Solubility of fluxapyroxad with Cetiol ® B as oil) was 40.8 mg/mL and the solubility (Cetiol B oil comprising ionic liquid, 21 °C, oil or lipid, Oil/IL 80/20 weight ratio, IL Cholinium octanoate, read-out: Solubility of fluxapyroxad with Cetiol ® B as oil) was 20.8 mg/mL. For the same molecule, the solubility (Cetiol B oil comprising ionic liquid, 21 °C, oil or lipid, Oil/IL 80/20 weight ratio, IL N-butyl-N′-methylimidazolium dimethylphosphate, read-out: Solubility of fluxapyroxad with Cetiol ® B as oil) was 29 mg/mL, the solubility (Cetiol B oil comprising ionic liquid, 21 °C, oil or lipid, Oil/IL 80/20 weight ratio, IL N-ethyl-N′-methylimidazolium dibutylphosphate, read-out: Solubility of fluxapyroxad with Cetiol ® B as oil) was 31.1 mg/mL and the solubility (Cetiol B oil comprising ionic liquid, 21 °C, oil or lipid, Oil/IL 80/20 weight ratio, IL N-ethyl-N′-methylimidazolium heptanoate, read-out: Solubility of fluxapyroxad with Cetiol ® B as oil) was 35.9 mg/mL. It also gave a solubility (Cetiol B oil comprising ionic liquid, 21 °C, oil or lipid, Oil/IL 80/20 weight ratio, IL N-ethyl-N′-methylimidazolium octanoate, read-out: Solubility of fluxapyroxad with Cetiol ® B as oil) of 34.3 mg/mL, a solubility (Cetiol B oil comprising ionic liquid, 21 °C, oil or lipid, Oil/IL 80/20 weight ratio, IL N-propyl-N′-propylimidazolium acetate, read-out: Solubility of fluxapyroxad with Cetiol ® B as oil) of 35.4 mg/mL and a solubility (Cetiol B oil comprising ionic liquid, 21 °C, oil or lipid, Oil/IL 80/20 weight ratio, IL Tetrabutylammonium [2-(2-methoxyethoxy)ethoxy]acetate, read-out: Solubility of fluxapyroxad with Cetiol ® B as oil) of 27.5 mg/mL. For the same molecule, the solubility (Cetiol B oil comprising ionic liquid, 21 °C, oil or lipid, Oil/IL 90/10 weight ratio, IL N-butyl-N′-methylimidazolium acetate, read-out: Solubility of fluxapyroxad with Cetiol ® B as oil) was 23.7 mg/mL, the solubility (Cetiol B oil comprising ionic liquid, 21 °C, oil or lipid, Oil/IL 90/10 weight ratio, IL N-ethyl-N′-ethylimidazolium propionate, read-out: Solubility of fluxapyroxad with Cetiol ® B as oil) was 24.2 mg/mL and the solubility (Cetiol B oil comprising ionic liquid, 21 °C, oil or lipid, Oil/IL 90/10 weight ratio, IL N-ethyl-N′-methylimidazolium acetate, read-out: Solubility of fluxapyroxad with Cetiol ® B as oil) was 25.6 mg/mL. It also gave a solubility (Cetiol B oil comprising ionic liquid, 21 °C, oil or lipid, Oil/IL 90/10 weight ratio, IL Tetrabutylammonium [2-(2-methoxyethoxy)ethoxy]acetate, read-out: Solubility of fluxapyroxad with Cetiol ® B as oil) of 16 mg/mL, a solubility (Cetiol B oil without ionic liquid, 21 °C, oil or lipid, 100 Oil (Cetiol B, no IL), read-out: Solubility of fluxapyroxad with Cetiol ® B as oil) of 3 mg/mL (≈ 7.87 mM) and a solubility (neat Agnique AMD 12 (N,N-dimethyldodecanamide) oil, 21 °C, oil or lipid, 100 Oil (Agnique AMD 12, no IL), read-out: Solubility of fluxapyroxad with Agnique AMD 12 ® (N,N-dimethyldodecanamide, lauryl N,N-dimethylamide) as oil) of 21 mg/mL (≈ 55.1 mM). It also gave a solubility (neat N-butyl-N′-methylimidazolium acetate (ionic liquid), organic solvent or mixture, 100 IL (no oil), IL N-butyl-N′-methylimidazolium acetate, read-out: Solubility of fluxapyroxad with Agnique AMD 12 ® (N,N-dimethyldodecanamide, lauryl N,N-dimethylamide) as oil) of 1 mg/mL (≈ 2.62 mM), a solubility (neat N-ethyl-N′-ethylimidazolium propionate (ionic liquid), 21 °C, organic solvent or mixture, 100 IL (no oil), IL N-ethyl-N′-ethylimidazolium propionate, read-out: Solubility of fluxapyroxad with Solvesso ® 200 ND as oil) of 45.7 mg/mL (≈ 120 mM) and a solubility (neat N-ethyl-N′-methylimidazolium acetate (ionic liquid), organic solvent or mixture, 100 IL (no oil), IL N-ethyl-N′-methylimidazolium acetate, read-out: Solubility of fluxapyroxad with Agnique AMD 12 ® (N,N-dimethyldodecanamide, lauryl N,N-dimethylamide) as oil) of 1 mg/mL (≈ 2.62 mM). It also gave a solubility (neat Solvesso 200 ND (oil), 21 °C, oil or lipid, 100 Oil (Solvesso 200 ND, no IL), read-out: Solubility of fluxapyroxad with Solvesso ® 200 ND as oil) of 1.5 mg/mL (≈ 3.93 mM), a solubility (neat cholinium octanoate (ionic liquid), 21 °C, organic solvent or mixture, 100 IL (no oil), IL Cholinium octanoate, read-out: Solubility of fluxapyroxad with Cetiol ® B as oil) of 5 mg/mL (≈ 13.1 mM) and a solubility (neat ionic liquid (no oil), 21 °C, organic solvent or mixture, 100 IL (no oil), IL N-butyl-N′-methylimidazolium acetate, read-out: Solubility of fluxapyroxad with Cetiol ® B as oil) of 42.4 mg/mL (≈ 111 mM). It also gave a solubility (neat ionic liquid (no oil), 21 °C, organic solvent or mixture, 100 IL (no oil), IL N-butyl-N′-methylimidazolium dimethylphosphate, read-out: Solubility of fluxapyroxad with Cetiol ® B as oil) of 5 mg/mL (≈ 13.1 mM), a solubility (neat ionic liquid (no oil), 21 °C, organic solvent or mixture, 100 IL (no oil), IL N-ethyl-N′-ethylimidazolium propionate, read-out: Solubility of fluxapyroxad with Cetiol ® B as oil) of 45.7 mg/mL (≈ 120 mM) and a solubility (neat ionic liquid (no oil), 21 °C, organic solvent or mixture, 100 IL (no oil), IL N-ethyl-N′-methylimidazolium acetate, read-out: Solubility of fluxapyroxad with Cetiol ® B as oil) of 47.2 mg/mL (≈ 124 mM). The solubility (neat ionic liquid (no oil), 21 °C, organic solvent or mixture, 100 IL (no oil), IL N-ethyl-N′-methylimidazolium dibutylphosphate, read-out: Solubility of fluxapyroxad with Cetiol ® B as oil) was 9.5 mg/mL (≈ 24.9 mM), the solubility (neat ionic liquid (no oil), 21 °C, organic solvent or mixture, 100 IL (no oil), IL N-ethyl-N′-methylimidazolium heptanoate, read-out: Solubility of fluxapyroxad with Cetiol ® B as oil) was 26.9 mg/mL (≈ 70.5 mM) and the solubility (neat ionic liquid (no oil), 21 °C, organic solvent or mixture, 100 IL (no oil), IL N-ethyl-N′-methylimidazolium octanoate, read-out: Solubility of fluxapyroxad with Cetiol ® B as oil) was 20.8 mg/mL (≈ 54.5 mM). It also gave a solubility (neat ionic liquid (no oil), 21 °C, organic solvent or mixture, 100 IL (no oil), IL N-propyl-N′-propylimidazolium acetate, read-out: Solubility of fluxapyroxad with Cetiol ® B as oil) of 36.7 mg/mL (≈ 96.2 mM), a solubility (neat ionic liquid (no oil), 21 °C, organic solvent or mixture, 100 IL (no oil), IL Tetrabutylammonium [2-(2-methoxyethoxy)ethoxy]acetate, read-out: Solubility of fluxapyroxad with Cetiol ® B as oil) of 9.5 mg/mL (≈ 24.9 mM) and a solubility (neat ionic liquid (no oil), organic solvent or mixture, 100 IL (no oil), IL N-ethyl-N′-methylimidazolium isononanoate, read-out: Solubility of fluxapyroxad with Agnique AMD 12 ® (N,N-dimethyldodecanamide, lauryl N,N-dimethylamide) as oil) of 9.5 mg/mL (≈ 24.9 mM). The solubility (oil or lipid, Oil/IL 90/10 weight ratio, IL N-butyl-N′-methylimidazolium acetate, read-out: Solubility of fluxapyroxad with Agnique AMD 12 ® (N,N-dimethyldodecanamide, lauryl N,N-dimethylamide) as oil) was 36 mg/mL, the solubility (oil/ionic liquid mixture, oil or lipid, Oil/IL 90/10 weight ratio, IL N-ethyl-N′-methylimidazolium isononanoate, read-out: Solubility of fluxapyroxad with Agnique AMD 12 ® (N,N-dimethyldodecanamide, lauryl N,N-dimethylamide) as oil) was 32 mg/mL and the solubility (organic solvent or mixture, 100 IL (no oil), IL Tetrabutylammonium [2-(2-methoxyethoxy)ethoxy]acetate, read-out: Solubility of fluxapyroxad with Agnique AMD 12 ® (N,N-dimethyldodecanamide, lauryl N,N-dimethylamide) as oil) was 9.5 mg/mL (≈ 24.9 mM).
